The source of these data is patent publication US11186592B2, “Thiazolopyridine derivatives as adenosine receptor antagonists” (MERCK PATENT GMBH, priority 2017, dated 2021).

Molecules are shown by their SMILES. “And” between values parts separate entries of the source, which are not always exact repeats. Identical values can stand only once. Like-named read-outs stand apart in the source and are kept apart here.

One data set addresses T1, human A2B receptor (Homo sapiens, UniProt P29275).
T1 construct: expressed in transfected cells; host or cells: HEK293
T1 sequence (P29275 1-332): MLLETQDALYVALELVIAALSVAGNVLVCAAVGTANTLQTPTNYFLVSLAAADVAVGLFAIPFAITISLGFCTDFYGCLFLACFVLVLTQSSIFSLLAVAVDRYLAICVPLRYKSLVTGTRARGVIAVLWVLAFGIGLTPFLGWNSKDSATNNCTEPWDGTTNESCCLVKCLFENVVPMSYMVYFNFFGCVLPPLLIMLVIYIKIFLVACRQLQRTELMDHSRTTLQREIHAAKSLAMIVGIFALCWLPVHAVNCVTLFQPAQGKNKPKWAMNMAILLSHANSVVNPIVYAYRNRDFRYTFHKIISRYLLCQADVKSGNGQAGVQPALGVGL
The data set is described as follows: cAMP (HTRF) functional assay, recombinant HEK293 cells expressing human A2B receptor, agonist NECA. It is filed as cell-based. Put shortly:
(§1)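 Cells were seeded, then treated with forskolin, test compound and agonist. After a 30 min incubation, HTRF detection reagents were added and intracellular cAMP was read. Values were scaled between an inhibitor control and DMSO before fitting.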
A general note: In TR-FRET formats the signal depends on donor and acceptor labels being close together.

In the next data set the target is T2, human A2A receptor (Homo sapiens, UniProt P29274).
T2 construct: expressed in transfected cells; host or cells: HEK293
T2 sequence (P29274 whole entry): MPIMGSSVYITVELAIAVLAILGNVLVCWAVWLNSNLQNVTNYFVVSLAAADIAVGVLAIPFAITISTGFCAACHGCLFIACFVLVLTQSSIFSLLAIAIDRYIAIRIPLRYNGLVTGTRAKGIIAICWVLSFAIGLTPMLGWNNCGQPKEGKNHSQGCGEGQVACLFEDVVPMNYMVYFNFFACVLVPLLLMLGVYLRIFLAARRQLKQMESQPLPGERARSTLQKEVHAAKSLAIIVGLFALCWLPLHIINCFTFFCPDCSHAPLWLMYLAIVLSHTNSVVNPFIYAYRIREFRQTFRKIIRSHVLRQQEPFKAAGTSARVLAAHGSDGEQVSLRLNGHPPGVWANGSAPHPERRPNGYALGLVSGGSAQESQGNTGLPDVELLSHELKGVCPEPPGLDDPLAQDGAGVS
The data set is described as follows: cAMP (HTRF) functional assay, recombinant HEK293 cells expressing human A2A receptor, agonist NECA. Format: cell-based. Put shortly:
as §1

Another data set deals with T3, human A1 receptor (Homo sapiens, UniProt P30542).
T3 construct: expressed in transfected cells; host or cells: CHO
T3 sequence (P30542 1-326): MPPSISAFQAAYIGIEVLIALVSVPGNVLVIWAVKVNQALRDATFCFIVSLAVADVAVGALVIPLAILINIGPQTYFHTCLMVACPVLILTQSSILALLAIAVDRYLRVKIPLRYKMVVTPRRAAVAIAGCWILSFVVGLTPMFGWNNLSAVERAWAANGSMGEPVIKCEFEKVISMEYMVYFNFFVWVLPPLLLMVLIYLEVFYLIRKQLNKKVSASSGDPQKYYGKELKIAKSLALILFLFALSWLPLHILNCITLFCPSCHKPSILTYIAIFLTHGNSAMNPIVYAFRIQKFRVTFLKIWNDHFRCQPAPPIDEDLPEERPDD
In words: cAMP (HTRF) functional assay, recombinant CHO cells expressing human A1 receptor, forskolin + agonist CPA. It is filed as cell-based. The essentials: (§2)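 Recombinant CHO lines carrying either receptor receive forskolin, compound and the matching agonist, CPA or IB-MECA. After 30 min, HTRF reagents are added and cAMP is quantified. Values are normalized to inhibitor and neutral DMSO controls, then fitted.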

Data set [1] is described as follows: Pharmacokinetic properties in mouse after single intravenous and oral administration.
Method: Female Wistar rats/mice (n=6) received either a single intravenous (bolus) injection or an oral administration (by gavage) of the tested compound.
The concentrations of the compounds in plasma, feces were quantified using an UPLC method with tandem mass spectrometric detection (LC-MS/MS) previously developed at the ‘Institute of Drug Metabolism and Pharmacokinetics’. […] The detection of the compounds was performed using multiple reaction monitoring in the positive ionization mode. Plasma samples were spiked with internal standard (20 μl) and the analyte was extracted from the matrix using tertiary-butyl methyl ether (tBME). The organic phase was evaporated to dryness under a stream of nitrogen. The residue was dissolved in acetonitrile/0.1% formic acid for LC-MS/MS analysis. Feces samples were homogenized with 4-times their volume of an ethanol/water mixture (4:1, v/v). Aliquots of the aqueous-ethanolic extracts were spiked with internal standard, diluted with acetonitrile/water (1:1, v/v) and directly injected into the LC-MS/MS system.
Pharmacokinetic parameters Cmax and tmax were taken from the observed data. […] AUC values were calculated by non-compartmental analysis using the linear up/log down method. Numerical data for mean plasma concentrations and derived pharmacokinetic parameters were rounded to 3 significant digits for presentation.
The next data set concerns the target T4, human A3 receptor (Homo sapiens, UniProt P0DMS8).
T4 construct: expressed in transfected cells; host or cells: CHO
T4 sequence (P0DMS8 1-318): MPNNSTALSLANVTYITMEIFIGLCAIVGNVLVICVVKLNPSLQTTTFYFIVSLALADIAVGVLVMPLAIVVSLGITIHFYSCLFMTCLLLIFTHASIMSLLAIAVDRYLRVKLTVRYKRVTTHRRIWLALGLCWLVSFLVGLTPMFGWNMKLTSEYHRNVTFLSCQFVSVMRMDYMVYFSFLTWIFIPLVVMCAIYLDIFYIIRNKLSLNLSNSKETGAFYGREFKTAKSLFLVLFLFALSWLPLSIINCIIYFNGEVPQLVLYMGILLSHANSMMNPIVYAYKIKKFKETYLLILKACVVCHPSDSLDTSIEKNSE
In words: cAMP (HTRF) functional assay, recombinant CHO cells expressing human A3 receptor, forskolin + agonist IB-MECA. It is filed as cell-based. Put shortly: as §2

For another data set, the system named is mouse Pan T cells. The data set is described as follows: Rescue of cytokine (IL-2, IFN-γ) secretion in CD3/CD28-stimulated mouse Pan T cells inhibited by A2A agonist CGS-21680. Particulars: Mus musculus, T-cell, CGS-21680 1 μM, BALB/c Pan T cells. Format: cell-based. From the text:
Adenosine (Ado) in tumor microenvironment can inhibit T cell activity by signaling through A2A receptors and suppress cytokine secretion by T cells. A2A specific agonists like CGS-21680 does similar job of inhibition of T cell cytokine secretion in vitro and in vivo. Potential A2A antagonists or A2A/A2B dual antagonists can rescue T cells from this inhibition. Herein, we describe the in vitro system we established using Pan T cells from mouse spleens to screen potential A2A antagonists or A2A/A2B dual antagonists for their activity. The method described involves the use of CD3/CD28 pre-coated beads to stimulate Pan T cells purified from mouse splenocytes, combined with the addition of A2A agonist along with potential A2A or A2A/A2B dual antagonists to evaluate potentiation of T cell cytokine production.
Briefly, mouse Pan T cells are purified from spleens of BALB/c mice using Pan T cell isolation kit Mouse II (MACS Miltenyi biotech Cat #Order no. 130-095-130) according to manufacturer's protocol. The purified T cells are seeded in Nunc™ 96-Well Polystyrene Round Bottom Microwell Plates in RPMI medium with 10% heat inactivated fetal bovine serum. The cells are rested at 37° C. for 1 h before activating with CD3/CD28 pre-coated beads (Dynabeads™ Mouse T-Activator CD3/CD28; Cat #11456D). After 30 min the cells are treated with varying doses of test antagonist(s). The cells are incubated for additional 30 min at 37° C. before treating with A2A agonist CGS-21680 (1 μM) or neutral control (DMSO). After 24 h incubation IL-2 levels in the supernatants and after 48 h incubation IFN-γ levels in the supernatants are measured by ELISAs according to manufacturer's protocol (R&D systems Cat #DY402 (IL-2); DY485 (IFN-γ)). Once the concentrations are calculated, the difference of cytokine concentration of DMSO control and agonist alone control is calculated (called Δ) and the percentage of rescue by each concentration of antagonist is calculated by using Microsoft Excel. These percentages of cytokine rescue in a dose dependent manner of antagonist is plotted in GraphPad Prism software and IC50 is calculated.

Setting [2] is: iv administration, listed as No. 4.

`COCCn1cc(C(=O)Nc2nc3c(OC)ncc(N4CCOCC4)c3s2)cn1` [compound 4, 1-(2-Methoxy-ethyl)-1H-pyrazole-4-carboxylic acid (4-methoxy-7-morpholin-4-yl-thiazolo[4,5-c]pyridin-2-yl)-amide]: the IC50 was below 1000 nM on human A2B receptor; below 10 nM at human A2A receptor; above 1000 nM on human A1 receptor; above 1000 nM on human A3 receptor; 130 nM with mouse Pan T cells (IFN-γ rescue in supernatant after 48 h, read-out: Mouse IFN-γ); 37 nM in the data set with mouse Pan T cells (IL-2 rescue in supernatant after 24 h, read-out: Mouse T-Cell IL-2). For the same molecule, the Feces iv in data set [1] (% of dose in feces after iv, @0.2 (iv dose 0.2 mg/kg), listed as No. 4, 0.2 mg/kg) was 5.7% and 6.4%. For the same molecule, the highest concentration (Cmax) in data set [1] (female, in vivo, iv, 0.2 mg/kg) is 1390 ng/mL; in data set [1] (female, plasma, iv, 0.2 mg/kg) it was 1260 ng/mL. In addition, the half-life was 49 min in data set [1] (female, in vivo, iv, 0.2 mg/kg) and 34.5 min in data set [1] (female, plasma, iv, 0.2 mg/kg). In data set [1] (female, plasma, iv, 0.2 mg/kg, CL, iv administration), this molecule gave a clearance of 26.3 mL/min/kg. Moreover, the Vd in data set [1] (female, plasma, iv, 0.2 mg/kg, Vss, iv administration) worked out at 0.899 L/kg. In addition, the CL in data set [1] (setting [2]) worked out at 21.3 mL/min/kg. This molecule also yielded a Vss in data set [1] (setting [2]) of 0.929 L/kg.

For orientation: Cmax means the peak of the concentration-time curve. For orientation: half-life means how long it takes for the measured level to halve. Higher therefore signals slow decline.
